Structures can show the parent of a compound that is named as a salt.
Columns and labels:
ATM = ATM (Homo sapiens (Human), UniProt Q13315); assay: ATM in Cell Western Assay (pKAP1 in etoposide-treated MCF-7 cells); assay type: cell-based; settings: MCF-7 cells, etoposide 100 μM, 1 hr, pKAP1 readout
Method in brief: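 After paraformaldehyde fixation and Triton X-100 permeabilization, immunostained plates were read by infrared scanning (ODYSSEY CLx). Compound was given as 10 doses, 3-fold dilutions from a 1 μM final top concentration.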

DNA-PK = DNA-PK (Homo sapiens (Human), UniProt P78527); assay: DNA-PK Enzyme-Linked Immunosorbent Assay (phosphorylation of GST-p53 (1-101) peptide); assay type: biochemical; settings: ELISA, ATP 20 μM
Method in brief: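 Inhibition measured by 450 nm absorbance after HRP/TMB detection of phospho-Ser15 on immobilized GST-p53 (1-101). The kinase reaction used 0.1 μg/mL DNA-PK and 20 μM ATP, 1 h at 25 °C. Ten 3-fold compound dilutions, top final concentration 100 nM.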

Chain of ATM (Q13315 whole entry): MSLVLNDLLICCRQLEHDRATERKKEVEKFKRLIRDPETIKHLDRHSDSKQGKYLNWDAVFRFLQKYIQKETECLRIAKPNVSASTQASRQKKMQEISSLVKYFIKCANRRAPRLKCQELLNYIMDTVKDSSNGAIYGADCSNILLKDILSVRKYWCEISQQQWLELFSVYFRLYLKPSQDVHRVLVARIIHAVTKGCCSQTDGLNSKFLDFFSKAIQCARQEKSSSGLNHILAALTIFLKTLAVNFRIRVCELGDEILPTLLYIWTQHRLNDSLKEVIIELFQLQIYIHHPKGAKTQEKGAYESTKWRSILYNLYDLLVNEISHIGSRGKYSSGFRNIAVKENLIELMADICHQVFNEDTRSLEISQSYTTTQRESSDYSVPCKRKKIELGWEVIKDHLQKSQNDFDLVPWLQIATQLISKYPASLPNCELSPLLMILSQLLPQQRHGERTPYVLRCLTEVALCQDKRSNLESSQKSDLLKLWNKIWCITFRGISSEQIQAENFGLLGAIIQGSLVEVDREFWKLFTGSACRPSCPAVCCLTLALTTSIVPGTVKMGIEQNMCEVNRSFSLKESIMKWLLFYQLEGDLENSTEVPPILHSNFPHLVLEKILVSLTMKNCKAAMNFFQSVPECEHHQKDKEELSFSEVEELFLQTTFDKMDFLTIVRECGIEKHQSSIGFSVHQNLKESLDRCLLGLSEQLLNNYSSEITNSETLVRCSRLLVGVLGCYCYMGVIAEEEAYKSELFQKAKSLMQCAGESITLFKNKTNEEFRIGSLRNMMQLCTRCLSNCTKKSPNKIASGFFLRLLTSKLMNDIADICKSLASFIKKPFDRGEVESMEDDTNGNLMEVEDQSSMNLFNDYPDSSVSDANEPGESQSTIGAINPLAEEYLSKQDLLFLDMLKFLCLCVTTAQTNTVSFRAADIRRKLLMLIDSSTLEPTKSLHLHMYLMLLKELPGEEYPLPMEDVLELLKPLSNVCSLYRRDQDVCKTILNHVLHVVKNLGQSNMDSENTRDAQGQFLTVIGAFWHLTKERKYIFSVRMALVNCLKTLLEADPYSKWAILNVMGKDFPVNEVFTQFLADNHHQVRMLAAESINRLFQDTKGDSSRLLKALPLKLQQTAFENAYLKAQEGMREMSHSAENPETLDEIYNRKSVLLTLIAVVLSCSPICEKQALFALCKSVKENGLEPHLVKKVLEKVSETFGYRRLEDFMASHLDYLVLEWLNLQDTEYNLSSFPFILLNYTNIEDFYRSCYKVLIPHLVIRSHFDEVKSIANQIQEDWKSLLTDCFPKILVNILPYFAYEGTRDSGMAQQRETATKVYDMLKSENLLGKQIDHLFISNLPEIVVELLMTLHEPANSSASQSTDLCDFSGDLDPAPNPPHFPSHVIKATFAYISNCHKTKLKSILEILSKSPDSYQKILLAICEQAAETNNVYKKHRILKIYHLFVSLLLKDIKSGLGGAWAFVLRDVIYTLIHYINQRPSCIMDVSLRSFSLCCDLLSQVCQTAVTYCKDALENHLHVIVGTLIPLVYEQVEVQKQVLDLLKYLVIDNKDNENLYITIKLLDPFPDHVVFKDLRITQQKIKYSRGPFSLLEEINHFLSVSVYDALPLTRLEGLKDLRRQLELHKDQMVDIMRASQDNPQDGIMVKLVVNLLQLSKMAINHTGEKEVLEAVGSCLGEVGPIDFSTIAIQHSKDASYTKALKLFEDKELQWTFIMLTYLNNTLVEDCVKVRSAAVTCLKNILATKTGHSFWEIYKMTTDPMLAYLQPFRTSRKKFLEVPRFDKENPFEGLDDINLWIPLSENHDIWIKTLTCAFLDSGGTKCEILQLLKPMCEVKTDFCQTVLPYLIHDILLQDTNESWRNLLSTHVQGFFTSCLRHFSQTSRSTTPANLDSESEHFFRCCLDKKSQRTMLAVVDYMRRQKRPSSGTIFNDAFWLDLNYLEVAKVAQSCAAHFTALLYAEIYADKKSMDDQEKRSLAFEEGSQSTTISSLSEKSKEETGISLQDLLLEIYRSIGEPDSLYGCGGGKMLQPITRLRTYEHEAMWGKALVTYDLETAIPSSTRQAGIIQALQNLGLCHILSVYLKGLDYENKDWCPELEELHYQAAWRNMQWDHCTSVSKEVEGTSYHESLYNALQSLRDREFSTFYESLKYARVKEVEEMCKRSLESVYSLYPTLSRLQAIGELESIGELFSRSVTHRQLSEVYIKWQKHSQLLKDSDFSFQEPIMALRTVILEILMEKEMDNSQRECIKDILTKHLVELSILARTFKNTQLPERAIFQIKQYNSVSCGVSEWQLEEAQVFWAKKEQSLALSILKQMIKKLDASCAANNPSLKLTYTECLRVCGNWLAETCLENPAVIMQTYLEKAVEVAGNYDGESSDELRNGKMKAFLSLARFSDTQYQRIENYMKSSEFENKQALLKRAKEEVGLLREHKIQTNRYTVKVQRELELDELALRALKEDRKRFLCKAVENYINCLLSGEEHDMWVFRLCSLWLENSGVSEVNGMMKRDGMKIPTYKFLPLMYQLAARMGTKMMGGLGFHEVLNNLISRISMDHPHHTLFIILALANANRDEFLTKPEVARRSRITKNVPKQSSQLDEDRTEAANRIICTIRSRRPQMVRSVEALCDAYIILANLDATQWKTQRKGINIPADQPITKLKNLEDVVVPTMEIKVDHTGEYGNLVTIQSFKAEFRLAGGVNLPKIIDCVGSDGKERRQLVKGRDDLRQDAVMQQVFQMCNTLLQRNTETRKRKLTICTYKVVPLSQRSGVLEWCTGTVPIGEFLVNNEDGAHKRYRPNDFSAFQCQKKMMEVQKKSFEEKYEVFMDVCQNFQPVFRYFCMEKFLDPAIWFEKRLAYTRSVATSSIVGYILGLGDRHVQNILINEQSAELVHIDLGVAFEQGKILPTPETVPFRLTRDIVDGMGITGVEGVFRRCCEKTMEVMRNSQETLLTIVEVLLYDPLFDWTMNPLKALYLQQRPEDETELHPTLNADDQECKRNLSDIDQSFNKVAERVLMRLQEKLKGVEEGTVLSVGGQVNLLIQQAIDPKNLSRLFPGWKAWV

Structure (SMILES)	IC50 (ATM)	IC50 (DNA-PK)
Cc1ccc(S(=O)(=O)Nc2cc(-c3ccc4ncc5c(c4c3)C3(CCC3)C(=O)N5C)cnc2N2CCC(N3CCOCC3)CC2)cc1 [Example 167, 4-Methyl-N-(5-(3′-methyl-2′-oxo-2′,3′-dihydrospiro[cyclobutane-1,1′-pyrrolo[2,3-c]quinolin]-8′-yl)-2-(4-morpholinopiperidin-l-yl)pyridin-3-yl)benzenesulfonamide hydrochloride]	1 to 100 nM	1 to 100 nM
CN(C)CCCOc1ncc(-c2ccc3ncc4c(c3c2)C2(CCC2)C(=O)N4C)cc1NS(=O)(=O)c1ccccc1F [Example 168, N-(2-(3-(Dimethylamino)propoxy)-5-(3′-methyl-2′-oxo-2′,3′-dihydrospiro[cyclobutane-1,1′-pyrrolo[2,3-c]quinolin]-8′-yl)pyridin-3-yl)-2-fluorobenzenesulfonamide hydrochloride]	0.5 to 1 nM	< 0.5 nM
CN(C)CCCOc1ncc(-c2ccc3ncc4c(c3c2)C2(CCC2)C(=O)N4C)cc1NS(=O)(=O)c1cncs1 [Example 169, N-(2-(3-(Dimethylamino)propoxy)-5-(3′-methyl-2′-oxo-2′,3′-dihydrospiro [cyclobutane-1,1′-pyrrolo [2,3-c]quinolin]-8′-230 yl)pyridin-3-yl)thiazole-5-sulfonamide hydrochloride]	1 to 100 nM	< 0.5 nM
Cc1cc(S(=O)(=O)Nc2cc(-c3ccc4ncc5c(c4c3)C3(CCC3)C(=O)N5C)cnc2OCCCN(C)C)sn1 [Example 170, N-(2-(3-(Dimethylamino)propoxy)-5-(3′-methyl-2′-oxo-2′,3′-dihydrospiro [cyclobutane-1,1′-pyrrolo[2,3-c]quinolin]-8′-yl)pyridin-3-yl)-3-methylisothiazole-5-sulfonamide hydrochloride]	1 to 100 nM	< 0.5 nM
CN(C)CCCOc1ncc(-c2ccc3ncc4c(c3c2)C2(CCC2)C(=O)N4C)cc1NS(=O)(=O)c1cc(F)cc(Cl)c1 [Example 171, 3-Chloro-N-(2-(3-(dimethylamino)propoxy)-5-(3′-methyl-2′-oxo-2′,3′-dihydrospiro[cyclobutane-1,1′-pyrrolo[2,3-c]quinolin]-8′-yl)pyridin-3-yl)-5-fluorobenzenesulfonamide hydrochloride]	1 to 100 nM	0.5 to 1 nM
CC1CCCN1S(=O)(=O)Nc1cc(-c2ccc3ncc4c(c3c2)C2(CCC2)C(=O)N4C)cnc1OCCCN(C)C (centres unmarked) [Example 172, N-(2-(3-(Dimethylamino)propoxy)-5-(3′-methyl-2′-oxo-2′,3′-dihydrospiro [cyclobulane-1,1′-pyrrolo[2,3-c]quinolin]-8′-yl)pyridin-3-yl)-2-methylpyrrolidine-1-sulfonamide]	1 to 100 nM	1 to 100 nM
CN1C(=O)C2(CCC2)c2c1cnc1ccc(-c3cnc(N4CCC(N(C)C)CC4)c(NS(=O)(=O)C4CC4)c3)cc21 [Example 173, N-(2-(4-(Dimethylamino)piperidin-1-yl)-5-(3′-methyl-2′-oxo-2′,3′-dihydrospiro[cyclobutane-1,1′-pyrrolo[2,3-c]quinolin]-8′-yl)pyridin-3-yl)cyclopropanesulfonamide]	< 0.5 nM	< 0.5 nM
CC1CCCN(S(=O)(=O)Nc2cc(-c3ccc4ncc5c(c4c3)C3(CCC3)C(=O)N5C)cnc2OCCCN(C)C)C1 (centres unmarked) [Example 175, N-(2-(3-(Dimethylamino)propoxy)-5-(3′-methyl-2′-oxo-2′,3′-dihydrospiro [cyclobutane-1,1′-pyrrolo[2,3-c]quinolin]-8′-yl)pyridin-3-yl)-3-methylpiperidine-1-sulfonamide]	1 to 100 nM	1 to 100 nM
CN(C)CCCOc1ncc(-c2ccc3ncc4c(c3c2)C2(CCC2)C(=O)N4C)cc1NS(=O)(=O)N1CCNCC1 [Example 177, N-(2-(3-(Dimethylamino)propoxy)-5-(3′-methyl-2′-oxo-2′,3′-dihydrospiro [cyclobutane-1,1′-pyrrolo[2,3-c]quinolin]-8′-yl)pyridin-3-yl)piperazine-1-sulfonamide]	1 to 100 nM	< 0.5 nM
Cc1ccc(S(=O)(=O)Nc2cc(-c3ccc4ncc5c(c4c3)C3(CCC3)C(=O)N5C)cnc2N2CCC(N(C)C)CC2)cc1 [Example 178, N-(2-(4-(Dimethylamino)piperidin-1-yl)-5-(3′-methyl-2′-oxo-2′,3′-dihydrospiro[cyclobutane-1,1′-pyrrolo[2,3-c]quinolin]-8′-yl)pyridin-3-yl)-4-methylbenzenesulfonamide 2,2,2-trifluoroacetate]	1 to 100 nM	< 0.5 nM
CN1C(=O)C2(CCC2)c2c1cnc1ccc(-c3cnc(OCCCN4CCCCC4)c(NS(=O)(=O)N(C)C)c3)cc21 [Example 180, hydrochloride]	1 to 100 nM	0.5 to 1 nM
COCCN(CCOC)S(=O)(=O)Nc1cc(-c2ccc3ncc4c(c3c2)C2(CCC2)C(=O)N4C)cnc1OCCCN(C)C [Example 181, 8′-(5-{[Bis(2-methoxyethyl)sulfamoyl]amino}-6-[3-(dimethylamino)propoxy]pyridine-3-yl)-3′-methyl-2′,3′-dihydrospiro [cyclobutane-1,1′-pyrrolo[2,3-c]quinoline]-2′-one]	1 to 100 nM	1 to 100 nM
CCN(CC)S(=O)(=O)Nc1cc(-c2ccc3ncc4c(c3c2)C2(CCC2)C(=O)N4C)cnc1OCCCN(C)C [Example 183, 8′-{5-[(Diethylsulfanioyl)amino]-6-[3-(dimethylamino)propoxy]pyridine-3-yl}-3′-methyl-2′,3′-dihydrospiro [cyclobutane-1,1′-pyrrolo[2,3-c]quinoline]-2′-one]	1 to 100 nM	1 to 100 nM
CC1CN(S(=O)(=O)Nc2cc(-c3ccc4ncc5c(c4c3)C3(CCC3)C(=O)N5C)cnc2OCCCN(C)C)CC(C)O1 (centres unmarked) [Example 184, N-(2-(3-(Dimethylamino)propoxy)-5-(3′-methyl-2′-oxo-2′,3′-dihydrospiro[cyclobutane-1,1′-pyrrolo[2,3-c]quinolin]-8′-yl)pyridin-3-yl)-2,6-dimethylmorpholine-4-sulfonamide]	1 to 100 nM	1 to 100 nM
Cc1ccc(S(=O)(=O)Nc2cc(-c3ccc4ncc5c(c4c3)C3(CCC3)C(=O)N5C)cnc2N2CCC(N(C)C)CC2)cn1 [Example 185, N-(2-(4-(Dimethylamino)piperidin-1-yl)-5-(3′-methyl-2′-oxo-2′,3′-dihydrospiro[cyclobutane-1,1′-pyrrolo[2,3-c]quinolin]-8′-yl)pyridin-3-yl)-6-methylpyridine-3-sulfonamide hydrochloride]	1 to 100 nM	0.5 to 1 nM
CN(C)CCCOc1ncc(-c2ccc3ncc4c(c3c2)C2(CCC2)C(=O)N4C)cc1NS(=O)(=O)c1ccc(C(F)(F)F)cc1 [Example 186, N-(2-(3-(Dimethylamino)propoxy)-5-(3′-methyl-2′-oxo-2′,3′-dihydrospiro[cyclobutane-1,1′-pyrrolo[2,3-c]quinolin]-8′-yl)pyridin-3-yl)-4-(trifluoromethyl)benzenesulfonamide hydrochloride]	1 to 100 nM	1 to 100 nM
COC1CCN(S(=O)(=O)Nc2cc(-c3ccc4ncc5c(c4c3)C3(CCC3)C(=O)N5C)cnc2OCCCN(C)C)CC1 [Example 187, N-(2-(3-(Dimethylamino)propoxy)-5-(3′-methyl-2′-oxo-2′,3′-dihydrospiro[cyclobulane-1,1′-pyrrolo[2,3-c]quinolin]-8′-yl)pyridin-3-yl)-4-methoxypiperidine-1-sulfonamide]	1 to 100 nM	1 to 100 nM
CN(C)CCCOc1ncc(-c2ccc3ncc4c(c3c2)C2(CCC2)C(=O)N4C)cc1NS(=O)(=O)c1ccns1 [Example 188, N-(2-(3-(Dimethylamino)propoxy)-5-(3′-methyl-2′-oxo-2′,3′-dihydrospiro [cyclobutane-1,1′-pyrrolo [2,3-c]quinolin]-8′-yl)pyridin-3-yl) isothiazole-5-sulfonamide hydrochloride]	1 to 100 nM	< 0.5 nM
CN(C)CCCOc1ncc(-c2ccc3ncc4c(c3c2)C2(CCC2)C(=O)N4C)cc1NS(C)(=O)=O [Example 189, N-(2-(3-(Dimethylamino)propoxy)-5-(3′-methyl-2′-oxo-2′,3′-dihydrospiro [cyclobulane-1,1′-pyrrolo[2,3-c]quinolin]-8′-yl)pyridin-3-yl) methanesulfonamide]	1 to 100 nM	< 0.5 nM
CN(C)CCCOc1ncc(-c2ccc3ncc4c(c3c2)C2(CCC2)C(=O)N4C)cc1NS(=O)(=O)C1CC1 [Example 190, N-(2-(3-(Dimethylamino)propoxy)-5-(3′-methyl-2′-oxo-2′,3′-dihydrospiro[cyclobulane-1,1′-pyrrolo[2,3-c]quinolin]-8′-yl)pyridin-3-yl)cyclopropanesulfonamide]	1 to 100 nM	1 to 100 nM
Cc1ccc(S(=O)(=O)Nc2cc(-c3ccc4ncc5c(c4c3)C3(CCC3)C(=O)N5C)cnc2N2CCC(N3CCCCC3)CC2)cc1 [Example 192, N-(2-(1,4-Bipiperidin]-1′-yl)-5-(3′-methyl-2′-oxo-2′,3′-dihydrospiro[cyclobulane-1,1′-pyrrolo[2,3-c]quinolin]-8′-yl)pyridin-3-yl)-4-methylbenzenesulfonamide hydrochloride]	1 to 100 nM	1 to 100 nM
CN1C(=O)C2(CCC2)c2c1cnc1ccc(-c3cnc(OCCCN4CCCCC4)c(NS(=O)(=O)c4cscn4)c3)cc21 [Example 193, N-(5-(3′-Methyl-2′-oxo-2′,3′-dihydrospiro[cyclobutane-1,1′-pyrrolo[2,3-c]quinolin]-8′-yl)-2-(3-(piperidin-1-yl)propoxy)pyridin-3-yl)thiazole-4-sulfonamide hydrochloride]	1 to 100 nM	0.5 to 1 nM
